Patent US5246935A, “Piperazinyl derivatives and methods of treating central nervous system ailments relating to the 5-HT2 receptor system” (Novo Nordisk A/S, priority 1990, dated 1993)
Structures can show the parent of a compound that is named as a salt.

What was measured:
Alpha1 receptor = experiment: In-Vitro Inhibition of Alpha1-Receptor Binding (3H-Prazosin); parameters: species or system rat (male Wistar); details: 3H-Prazosin 0.5 nM, rat cortex, 25° C., 30 min; read-out: Receptor binding IC50 α1
Experimental: In-Vitro Inhibition of Alpha1 -Receptor Binding, Radioactive-labelled ligand ^3 H-Prazosin is incubated with isolated cell-membrane fragments at 25° C. for a given period of time. Following completed incubation, the incubate is filtered through GF/B filters, which are rinsed following filtration to remove unspecifically adhered radioactivity. As opposed to low- molecular compounds, membrane fragments are not rinsed through the filters, the radioactivity bound to the filters indicates the amount of ligand bound specifically as well as nonspecifically to the membranes. The procedure is performed in ice bath. Polytron kinematica is rinsed with milli-Q-H2 O before and after use. Male Wistar rats, 150-200 g are decapitated, cortex is removed quickly and weighed (approx. 500 mg). Cortex is transferred to a centrifuging vial containing 10 ml ice-cold D2 buffer. Homogenization applying polytron kinematica (homogenizer) setting 6 for 20 sec. The homogenizer is rinsed with 10 ml D2 buffer in another centrifuging vial. The 10 ml rinsing buffer is added to the tissue vial. Centrifugation at 18,000 rpm for 12 min. at 4° C. This is repeated once. Final pellet is added to 400×vol. of same buffer. (Ex. 500 mg cortex in 200 ml D2 buffer). Can be stored for 30 min. at 0° C. 2,000 μl tissue 25 μl ^3 H-Prazosin (0.5 nM) 25 μl test substance/H2 O/blind Phentolamine (10 μM) Incubation for 30 min. at 25° C. 10 ml of ice-cold 0.9% NaCl is added to the tubes and filtered through GF/B filters (use gloves). This procedure is repeated. Filters are placed in counting vials and 4 ml opti-flour is added (perform in fume cupboard, use gloves). Counting is performed at window 0-19 of the betacounter (Pachard). […] Further, the analytical site is cleaned carefully every day after use. Dissolved in H2 O, EtOH, MeOH or DMSO and further diluted in H2 O. […] Most stock solutions are stable at 4° C. Attention should, however, be paid to any precipitation, change in colour etc. Test-substance dilutions are always prepared fresh every day. When weighing out test substances, it is attempted to weigh out approx. 1 mg of substance. Less than 0.8 mg must never be weighed out and only infrequently more than 2 mg (for economy reasons) dependent, however, on conc./ass.

[1] = test system: acetic acid-induced writhings in mice; experiment: Antagonism of Acetic Acid-Induced Writhings In Mice; assay type: in vivo, mouse (NMRI); details: Mus musculus, sc; s.c. 30 min before acetic acid 0.5 per cent i.p.; 50 per cent protection
Experimental: Antagonism of Acetic Acid-Induced Writhings In Mice
In mice i.p. injection of acetic acid induces a writhing syndrome which is antagonized by analgesics (Siegmund et al., 1957; Eckhardt et al., 1957).
Acetic acid 0.5 per cent is injected i.p. (0.15 ml/10 g body weight) to 6 mice (NMRI, either sex weighing 20-25 g) pretreated with physiological saline (controls) and to 6 mice pretreated with test substance. In the controls acetic acid induces a syndrome characterized by contraction of abdomen, turning of trunk and extension of hind limbs. Saline and test substances are administered s.c. 30 min. before acetic acid. The number of writhings is counted 5-15 min. after injection of acetic acid.
The activity is expressed as per cent protection: [formula]
The effect of active substances is evaluated by a dose response curve, log dose on the abscissa, and per cent protection on the ordinate. The potency is expressed as the dose (ED50 in mg/kg giving 50 per cent protection against writhings.
This test is used as a screening test for analgesics. Additional results from other screening tests are required to exclude active anti-writhing substances without analgesic effect.

Dopamine D2 receptor = Dopamine D2 receptor (Rattus norvegicus, UniProt P61169); experiment: In-Vitro Inhibition of Dopamine D2 Receptor Binding (3H-Spiroperidol); parameters: species or system rat (male Wistar); details: 3H-Spiroperidol 0.05 nM, rat striatum, 37° C., 20 min
Dopamine D2 receptor, sequence (P61169 whole entry): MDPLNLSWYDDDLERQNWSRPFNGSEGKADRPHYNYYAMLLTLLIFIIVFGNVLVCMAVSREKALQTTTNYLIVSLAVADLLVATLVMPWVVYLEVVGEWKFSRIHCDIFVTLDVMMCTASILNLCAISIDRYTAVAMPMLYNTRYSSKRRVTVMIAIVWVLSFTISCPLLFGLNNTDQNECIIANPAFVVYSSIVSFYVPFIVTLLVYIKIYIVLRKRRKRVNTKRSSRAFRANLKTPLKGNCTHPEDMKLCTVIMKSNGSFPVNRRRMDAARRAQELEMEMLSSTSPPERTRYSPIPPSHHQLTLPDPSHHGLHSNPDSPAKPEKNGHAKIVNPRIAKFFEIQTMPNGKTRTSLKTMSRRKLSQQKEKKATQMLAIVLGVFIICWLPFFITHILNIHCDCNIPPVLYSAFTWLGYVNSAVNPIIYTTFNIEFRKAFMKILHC
Experimental: In-Vitro Inhibition of Dopamine D2 Receptor Binding,
Radioactive-labelled ligand ^3 H-Spiroperidol is incubated with isolated cell-membrane fragments at 37° C. for a given period of time. Following completed incubation, the incubate is filtered through GF/B filters which are rinsed following filtration to remove unspecifically adhered radioactivity. As opposed to low- molecular compounds, membrane fragments are not rinsed through the filters, the radioactivity bound to the filters is indicative of the amount of ligand bound specifically as well as nonspecifically to the membranes.
The procedure is performed in ice bath. Polytron kinematica is rinsed with milli-Q-H2 O before and after use. Male Wistar rats, 150-200 g are decapitated, striatum is removed quickly and weighed (approx. 50 mg). Striatum is transferred to a centrifuging vial containing 10 ml ice-cold D2 buffer. Homogenization is performed applying polytron kinematica (homogenizer) setting 6 for 20 sec. The homogenizer is rinsed with 10 ml D2 buffer in another centrifuging vial. The 10 ml rinsing buffer is added to the tissue vial. Centrifugation at 18,000 rpm for 10 min. at 4° C. Final pellet is transferred to 1,000×vol. of same buffer. (Ex. 50 mg striatum in 50 ml D2 buffer). Can be stored at 0° C. for at least 4 hours. Note that the tissue must homogeneous (uniform) before use. If not, brief homogenization is performed.
2,500 μl tissue (homogeneous)
25 μl ^3 H-Spiroperidol (0.05 nM)
25 μl test substance/H2 O/blind (Domperidone 0.2 μM)
Incubation for 20 min. at 37° C.-10 min. on ice bath.
10 ml ice-cold 0.9% NaCl is added to the tubes and filtered through GF/B filters (use gloves). This procedure is repeated. The filters are placed in counting vials and 4 ml opti-flour is added (perform in fume cupboard, use gloves). Counting is performed at window 0-19 of the beta-counter (Pachard). Note that receptor box and lid are rinsed thoroughly in H2 O after use to avoid contamination. Further, the analytical site is cleaned carefully every day after use.
Dissolved in H2 O, EtOH, MeOH or DMSO and further diluted in H2 O. The D2 binding will stand concentrations of up to approx. 20% of these solvents without affecting the binding. Most stock solutions are stable at 4° C., attention is, however, paid to any precipitation, change in colour etc. Test-substance dilutions are always made fresh every day. When weighing out test substances, it is attempted to weigh out approx. 1 mg of substance. Less than 0.8 mg must never be weighed out and only infrequently more than 2 mg (for economy reasons), dependent, however, on conc./assay.

SMILES	IC50 (Alpha1 receptor)	ED50 [1]	IC50 (Dopamine D2 receptor)
COc1cc(NC(=O)OCCCN2CCN(c3ccccc3Cl)CC2)cc(OC)c1OC.Cl [Example 3, 4-(2-Chlorophenyl)-1-[3-(3,4,5-trimethoxyphenylcarbamoyloxy)propyl]piperazine, hydrochloride]	45 nM	12 mg/kg	120 nM
O=C(Nc1ccc2ncsc2c1)OCCCN1CCN(c2ccc(Cl)cc2)CC1 [Example 19, 4-(4-Chlorophenyl)-1-[3-(6-benzothiazolylcarbamoyloxy)propyl]piperazine, hydrochloride]	122 nM	–	150 nM
COc1ccc2cccc(N3CCN(CCCOC(=O)Nc4ccc5c(c4)OCO5)CC3)c2c1 [Example 34, 1-(7-Methoxy-1-naphthyl)-4-[3-(3,4-methylenedioxyphenylcarbamoyloxy)propyl]piperazine, HCl]	144 nM	–	4.3 nM
COc1cc(NC(=O)OCCCN2CCN(c3ccc(F)cc3)CC2)cc(OC)c1OC [Example 8, 4-(4-Fluorophenyl)-1-[3-(3,4,5-trimethoxyphenylcarbamoyloxy)propyl]piperazine, hydrochloride]	61 nM	–	720 nM
